Where two headings read alike, the source gives them in different places.
Columns and labels:
[1] = test system: acetylation of histone proteins H3 and H4 in HH cells; experiment: Acetylation of histone H3 and H4 (flow cytometry, Western blot); format: cell-based, human; conditions: increasing doses, 30 hours
Protocol: Flow Cytometry. Cells were harvested after 30 hours of treatment, washed twice with PBS, fixed with 4% paraformaldehyde solution and permeabilized with 70% methanol before incubating with the relevant antibodies: HDAC1 Polyclonal Antibody (Proteintech), Rabbit anti-Acetyl Histone H3 K9/K14, and Rabbit Anti-Acetyl Histone H4 (Millipore). After 30 minutes incubation at room temperature cells are washed twice with PBS and FITC conjugated secondary Goat anti-rabbit antibodies (Thermofisher) were added. Cells were incubated on ice for 30 minutes and then washed in PBS. After the second wash, cells were resuspended in PBS with 4% FBS and ready for signal acquisition on a flow cytometer. Apoptosis in cell lines was assessed by the presence of cleaved Poly (ADP-ribose) polymerase-1 (PARP) using a flourochrome conjugated anti-cleaved PARP antibody (BD Biosciences). After staining the cells were acquired using an Attune Flow Cytometer and the data analyzed using FloJo analysis software. The Mean Fluorescence intensity (MFI) was indicative of the level of expression of each marker.
Western Blots. […] Antibodies were detected with the corresponding horseradish peroxidase-linked secondary antibodies. […] Signal detection and imaging was captured and analyzed using a CHEMIDOC™ System (Bio-Rad) with signal quantification. […]

BALB/c mice [2] = experiment: Repeated dose toxicity study; format: in vivo
Text: FIGS. 14A and 14B. […] Depicted are the percentage of body weight changes as a percentage of starting weights with SEM (FIG. 14A; n=5 mice/group) and clinical score with SEM (FIG. 14B; n=5 mice/group).
(§1) In vivo studies. For single dose toxicity study, five to seven-week old female BALB/c mice were chosen for the MTD study. Animals were randomly assigned to dose groups based on body weight. […] Mice were divided into two cohorts for Nano-romidepsin (NanoRomi) and free romidepsin. Each cohort was divided into sub-cohorts. Each sub cohort (n=5) received a single treatment of following doses: 1, 2, 3, 5, and 8 mg/kg body weight by intreaperitoneal (IP) and intravenous (IV) route of administration. NanoRomi was diluted under sterile conditions in phosphate buffered saline (PBS). Romidepsin was prepared in DMSO and then diluted with PBS under sterile condition. […] The mice were monitored for 7 days after the last treatment. For single dose and repeated dose toxicity study, we used two endpoints: weight loss and clinical score. Clinical signs were scored by observing activity, appearance (hair coat and eyes/nose), posture, and body condition with a maximum of 3 points going to each (0, normal; 1 slight deviation from normal; 2, moderate deviation from normal, 3, severe deviation from normal). Euthanasia criteria included weight loss either >20% weight loss or reached a clinical score >6.

[3] = Single dose toxicity study (MTD); format: in vivo, mice; conditions: female, mouse, in vivo, BALB/c mice
Protocol: as §1

BALB/c mice [4] = experiment: Single dose toxicity study (MTD); format: in vivo
Protocol: as §1

[5] = test system: H9-dtomato-luciferase tumor; experiment: Efficacy study, xenograft bioluminescence imaging; format: in vivo, NOD.Cg-Prkdcscid Il2rgtm1Wjl/SzJ mice (human H9 xenografts); conditions: 2 mg/kg IP on days 1, 4, 8, 11; after day 17 of engraftment
Text: FIG. 15. Efficacy study using NanoRomidepsin PDLLA. […] In vivo, BLI images were acquired to determine the response after the romidepsin and NanoRomidepsin PDLLA treatment. All cohorts were imaged on days 7, 10, 14, and 17 days (arrows) after post-engraftment using Lago X Spectrum Imaging System before the administration of drugs. After acquisition of images, a mean BLI curve of human H9 xenografts was generated where the y axis represents total flux (photon/s) and x axis represents time (Days) function.

[6] = Pharmacokinetic study, romidepsin in plasma; conditions: mouse, in vivo, 2.5 mg/kg
Protocol: Each treatment cohort was further divided into two sub-cohorts depending upon the route of administration (IP or IV). […] Mice were sacrificed (n=3 per time point) at 1, 3, 6, 18, 24, 48, and 72 hours after the treatment. Blood (˜1 mL) was collected via terminal cardiac puncture under CO2 anesthesia and collected in EDTA-coated K3EDTA tubes followed by centrifugation (2000×g for 15 min) to isolate plasma. Plasma was placed in cryopreservation vials and preserved by snap freezing using liquid nitrogen. Blood from three untreated mice was collected at the beginning of the treatment (T=0) and used as a control.
For efficacy study: 5- to 7-week-old female NOD.Cg-Prkdcscid Il2rgtm1Wjl/SzJ mice (The Jackson Laboratory). were injected with 3 million a fluorescent protein, Chili (dTomato-absorption max and emission max at 554 nm and 581 nm respectively)—and a bioluminescence generating protein, firefly luciferase (Luc) expressing H9 cells subcutaneously in the flank. In vivo BLI analysis was conducted on a cryogenically cooled Lago X (Spectral Instruments Imaging system). Mice were imaged twice a week starting 4 days after inoculation of cells. […] Baseline imaging data were recorded for all mice on day 1 (start of drug administration) and on each day of drug administration before the treatment. The numbers of animals, study design, and treatment of animals were reviewed, and approved by the Institutional Animal Care and Use Committee (IACUC) of the University of Virginia, Charlottesville, Virginia, United States of America.

[7] = test system: PBMCs from healthy donors; experiment: Cell viability of normal cells (CELL TITER GLO); format: cell-based, human; conditions: for IC50: Homo sapiens, PBMC

SMILES: C/C=C1\NC(=O)[C@H]2CSSCC/C=C/[C@H](CC(=O)N[C@H](C(C)C)C(=O)N2)OC(=O)[C@H](C(C)C)NC1=O [Romidepsin, (1S,4S,7Z,10S,16E,21R)-7-Ethylidene-4,21-diisopropyl-2-oxa-12,13-dithia-5,8,20,23-tetrazabicyclo[8.7.6]tricos-16-ene-3,6,9,19,22-pentone]
- acetylation of H3 and H4 (flow cytometry) [1]: concentration dependent increase in the acetylation of both H3 and H4
- body weight change (BALB/c mice [2]; 3 mg/kg IP on days 1, 4, 8 and 11): severe body weight loss
- deaths during the experimental period (BALB/c mice [2]; 2 and 3 mg/kg IP on days 1, 4, 8 and 11): 1 mouse
- MTD ([3]; intraperitoneal (IP)): 5 mg/kg
- MTD ([3]; intravenous (IV), highest dose tested 8 mg/kg): > 8 mg/kg
- clinical score (BALB/c mice [4]; after first 7 days of treatment): equivalent clinical score
- dose at which mice reached humane endpoints (BALB/c mice [4]; intraperitoneal (IP)): 8 mg/kg
- tumor response (BLI) compared to the control and ghost nanoparticle group [5]: cytostatic effect
- AUC(0-inf) ([6]; ip): 1930 ng·h/mL
- AUC(0-t) ([6]; ip): 1920 ng·h/mL
- Cmax ([6]; ip): 120 ng/mL
- MRT inf ([6]; ip): 12.8 h
- Tmax ([6]; ip): 6 h
- Vd/F ([6]; ip): 20 L/kg
- half-life ([6]; ip): 9.83 h
- AUC(0-inf) ([6]; iv): 108 ng·h/mL
- AUC(0-t) ([6]; iv): 99.3 ng·h/mL
- Cmax ([6]; iv): 21.3 ng/mL
- MRT inf ([6]; iv): 5.53 h
- Tmax ([6]; iv): 1 h
- half-life ([6]; iv): 5.22 h
- times PBMCs from healthy donors more sensitive than the cancer cells ([7]; 72 hrs PBMCs vs cancer cells): 1.5 ×
- IC50 ([7]; 24 h, read-out: IC50 in nM, PBMC Donor 1, 24 hrs): 0.02 nM
- IC50 ([7]; 24 h, read-out: IC50 in nM, PBMC Donor 2, 24 hrs): > 50 nM
- IC50 ([7]; 24 h, read-out: IC50 in nM, PBMC Donor 3, 24 hrs): > 50 nM
- IC50 ([7]; 48 h, read-out: IC50 in nM, PBMC Donor 1, 48 hrs): 0.01 nM
- IC50 ([7]; 48 h, read-out: IC50 in nM, PBMC Donor 2, 48 hrs): 0.01 nM
- IC50 ([7]; 48 h, read-out: IC50 in nM, PBMC Donor 3, 48 hrs): > 50 nM
- IC50 ([7]; 72 h, read-out: IC50 in nM, PBMC Donor 1, 72 hrs): 0.04 nM
- IC50 ([7]; 72 h, read-out: IC50 in nM, PBMC Donor 2, 72 hrs): 0.07 nM
- IC50 ([7]; 72 h, read-out: IC50 in nM, PBMC Donor 3, 72 hrs): 2.48 nM
- IC50 ([7]; read-out: Avg. IC50 across the PBMCs from healthy donors, 3 donors, 72 hrs (sentence prints 'At 60 hrs' for NanoRomidepsin PDLLA)): 0.8 nM
- IC50 ([7]; read-out: IC50 range across the PBMCs from healthy donors, 3 donors, 72 hrs (sentence prints 'At 60 hrs' for NanoRomidepsin PDLLA)): 0.04 to 2.5 nM

— patent US20250302767A1, “TREATMENT OF CANCER AND AUTOIMMUNE DISORDERS USING NANO POLYMERS OF HISTONE DEACETYLASE INHIBITORS” (University of Virginia Patent Foundation, priority 2021, published 2025)
